From patent publication US11000033B2, “Ketone or oxime compound, and herbicide” (NISSAN CHEMICAL CORPORATION, priority 2014, dated 2021)

Legend:
Assay type in all cases: in vivo
[1] = system: Digitaria ciliaris; assay: Test Example 4: herbicidal effect by soil treatment (symbol F); settings: 320 g/ha
How it was run: (§1)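 Seeds were sown in sterilized diluvial soil, covered with about 1.5 cm of soil, and the soil surface was sprayed with a water-diluted emulsion of the compound at a predetermined rate. Plants grew in a greenhouse at 25° C. to 30° C.; effects were scored visually 3 weeks after application.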

[2] = system: beet; assay: Test Example 4: effect on crop by soil treatment (symbol f); settings: 320 g/ha
How it was run: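 Diluvial soil (sterilized) in boxes; seeds placed spot-wise alongside weed species; ~1.5 cm covering soil. Greenhouse, 25–30° C.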

[3] = system: Scirpus juncoides; assay: Test Example 2: herbicidal activity, application during weed generation in submerged conditions (symbol B); settings: Table 23; application herbicide amount 320 g/ha; grade 0-5 by criteria of Test Example 1
How it was run: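 Seeds sown in flooded alluvial soil (4 cm water) were grown in a 25-30° C greenhouse. At the one- to two-leaf stage, diluted emulsion of compound was applied to the water surface at a predetermined rate. Effect was scored 3 weeks later.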

[4] = system: Echinochloa crus-galli var. crus-galli; assay: Test Example 4: herbicidal effect by soil treatment (symbol H); settings: 320 g/ha
How it was run: as §1

[5] = system: Echinochloa crus-galli var. crus-galli; assay: Test Example 5: herbicidal effect by foliage application, plastic box (symbol H); settings: 320 g/ha, 3 weeks after application
How it was run: (§2)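 Emulsion formulation, diluted with water to the intended rate, was applied uniformly to leaves by small sprayer. Recipients were 14-day greenhouse-grown seedlings (25° C. to 30° C.). Assessment followed at 3 weeks.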

[6] = system: rapeseed; assay: Test Example 5: effect on crop by foliage application, plastic box (symbol g); settings: 320 g/ha, 3 weeks after application
How it was run: (§3)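 Crop and weed seeds sown in spots in sterilized diluvial soil in plastic boxes and covered with about 1.5 cm soil. Plants raised in a greenhouse at 25° C. to 30° C. for foliar application.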

[7] = system: Apera spica-venti; assay: Test Example 5: herbicidal effect by foliage application, plastic box (symbol L); settings: 320 g/ha, 3 weeks after application
How it was run: as §2

[8] = system: Monochoria vaginalis; assay: Test Example 1: herbicidal activity, application before weed generation in submerged conditions (symbol C); settings: application herbicide amount 320 g/ha
How it was run: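 Pre-emergence, paddy conditions: emulsifiable formulation diluted in water, dosed onto floodwater (4 cm depth) on sowing day. Alluvial soil; weeds sown mixed; rice transplanted at 2.5-leaf stage. Greenhouse 25–30 °C, 3 wk. Score 0–5 (5 = ≥90% kill, 0 = ≤5%).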

[9] = system: Stellaria media; assay: Test Example 4: herbicidal effect by soil treatment (symbol P); settings: 320 g/ha
How it was run: as §1

[10] = system: rice plant; assay: Test Example 5: effect on crop by foliage application, plastic box (symbol b); settings: 320 g/ha, 3 weeks after application
How it was run: as §3

[11] = system: Alopecurus myosuroides; assay: Test Example 5: herbicidal effect by foliage application, plastic box (symbol J); settings: 320 g/ha, 3 weeks after application
How it was run: as §2

[12] = system: Abutilon theophrasti; assay: Test Example 5: herbicidal effect by foliage application, plastic box (symbol M); settings: 320 g/ha, 3 weeks after application
How it was run: as §2

## CON=C(C)CC1CC(OC(=O)c2ccc(C(F)(F)F)cc2)=C(c2c(C)cc(C)cc2C)C1=O (stereo not drawn) [1-149]
[1]
  F: Digitaria ciliaris, herbicidal effect grade: 5 (Herbicidal ratio of 90% or more (almost completely withered))
[2]
  f: beet, effect grade on crop: 0 (Herbicidal ratio of 5% or lower (almost no effect))
[3]
  Herbicidal effect grade, B: Scirpus juncoides: 4 (Herbicidal ratio of 70% or higher and lower than 90%)
[4]
  H: Echinochloa crus-galli var. crus-galli, herbicidal effect grade: 5 (Herbicidal ratio of 90% or more (almost completely withered))
[5]
  H: Echinochloa crus-galli var. crus-galli, herbicidal effect (criteria 0-5): 5 (Herbicidal ratio of 90% or more (almost completely withered))
[6]
  g: rapeseed, effect on crop (criteria 0-5): 4 (Herbicidal ratio of 70% or higher and lower than 90%)
[7]
  L: Apera spica-venti, herbicidal effect (criteria 0-5): 5 (Herbicidal ratio of 90% or more (almost completely withered))
[8]
  Herbicidal effect grade, C: Monochoria vaginalis: 1 (Herbicidal ratio of 5% or higher and lower than 20%)
[9]
  P: Stellaria media, herbicidal effect grade: 0 (Herbicidal ratio of 5% or lower (almost no effect))
[10]
  b: directly sowed rice plant, effect on crop (criteria 0-5): 5 (Herbicidal ratio of 90% or more (almost completely withered))
[11]
  J: Alopecurus myosuroides, herbicidal effect (criteria 0-5): 5 (Herbicidal ratio of 90% or more (almost completely withered))
[12]
  M: Abutilon theophrasti, herbicidal effect (criteria 0-5): 4 (Herbicidal ratio of 70% or higher and lower than 90%)

## CON=C(C)CC1CC(OC(=O)N2CCCC2)=C(c2c(C)cc(C)cc2C)C1=O (stereo not drawn) [1-150]
[1]
  F: Digitaria ciliaris, herbicidal effect grade: 5 (Herbicidal ratio of 90% or more (almost completely withered))
[2]
  f: beet, effect grade on crop: 0 (Herbicidal ratio of 5% or lower (almost no effect))
[3]
  Herbicidal effect grade, B: Scirpus juncoides: 3 (Herbicidal ratio of 40% or higher and lower than 70%)
[4]
  H: Echinochloa crus-galli var. crus-galli, herbicidal effect grade: 0 (Herbicidal ratio of 5% or lower (almost no effect))
[5]
  H: Echinochloa crus-galli var. crus-galli, herbicidal effect (criteria 0-5): 5 (Herbicidal ratio of 90% or more (almost completely withered))
[6]
  g: rapeseed, effect on crop (criteria 0-5): 4 (Herbicidal ratio of 70% or higher and lower than 90%)
[7]
  L: Apera spica-venti, herbicidal effect (criteria 0-5): 5 (Herbicidal ratio of 90% or more (almost completely withered))
[8]
  Herbicidal effect grade, C: Monochoria vaginalis: 0 (Herbicidal ratio of 5% or lower (almost no effect))
[9]
  P: Stellaria media, herbicidal effect grade: 0 (Herbicidal ratio of 5% or lower (almost no effect))
[10]
  b: directly sowed rice plant, effect on crop (criteria 0-5): 5 (Herbicidal ratio of 90% or more (almost completely withered))
[11]
  J: Alopecurus myosuroides, herbicidal effect (criteria 0-5): 5 (Herbicidal ratio of 90% or more (almost completely withered))
[12]
  M: Abutilon theophrasti, herbicidal effect (criteria 0-5): 3 (Herbicidal ratio of 40% or higher and lower than 70%)

## CON=C(C)CC1CC(OC(=O)N2CCCCC2)=C(c2c(C)cc(C)cc2C)C1=O (stereo not drawn) [1-151]
[1]
  F: Digitaria ciliaris, herbicidal effect grade: 5 (Herbicidal ratio of 90% or more (almost completely withered))
[2]
  f: beet, effect grade on crop: 0 (Herbicidal ratio of 5% or lower (almost no effect))
[3]
  Herbicidal effect grade, B: Scirpus juncoides: 1 (Herbicidal ratio of 5% or higher and lower than 20%)
[4]
  H: Echinochloa crus-galli var. crus-galli, herbicidal effect grade: 0 (Herbicidal ratio of 5% or lower (almost no effect))
[5]
  H: Echinochloa crus-galli var. crus-galli, herbicidal effect (criteria 0-5): 5 (Herbicidal ratio of 90% or more (almost completely withered))
[6]
  g: rapeseed, effect on crop (criteria 0-5): 4 (Herbicidal ratio of 70% or higher and lower than 90%)
[7]
  L: Apera spica-venti, herbicidal effect (criteria 0-5): 5 (Herbicidal ratio of 90% or more (almost completely withered))
[8]
  Herbicidal effect grade, C: Monochoria vaginalis: 0 (Herbicidal ratio of 5% or lower (almost no effect))
[9]
  P: Stellaria media, herbicidal effect grade: 0 (Herbicidal ratio of 5% or lower (almost no effect))
[10]
  b: directly sowed rice plant, effect on crop (criteria 0-5): 4 (Herbicidal ratio of 70% or higher and lower than 90%)
[11]
  J: Alopecurus myosuroides, herbicidal effect (criteria 0-5): 5 (Herbicidal ratio of 90% or more (almost completely withered))
[12]
  M: Abutilon theophrasti, herbicidal effect (criteria 0-5): 3 (Herbicidal ratio of 40% or higher and lower than 70%)
